Results published in US11325884B2, “Ketone inhibitors of lysine gingipain” (CORTEXYME, INC., priority 2016, dated 2022).
pIC50: −log10 of the molar value. Values joined by “and” are separate entries in the source; they are usually repeats but may differ in a detail not shown here. Equal values may be shown once. Read-outs that look alike come from different tables or passages of the source.

Tests used:
[1] = Oral pharmacokinetics in CD-1 mice; assay type: in vivo; conditions: male CD-1 mice, p.o. 10 mg/kg; for oral availability / plasma concentrations: as compared to reference compound 73
lysine gingipain (Kgp) = lysine gingipain (Kgp) (Porphyromonas gingivalis (strain ATCC 33277 / DSM 20709 / CIP 103683 / JCM 12257 / NCTC 11834 / 2561), UniProt B2RLK2); assay: Inhibition of lysine gingipain, fluorogenic assay (Z-His-Glu-Lys-MCA); assay type: biochemical; conditions: for selectivity for Kgp over endogenous cathepsins: as compared to reference compound 73; for IC50: read-out: IC50 (nM) Kgp; for pIC50: Table 5, probe compounds, read-out: Kgp IC50
Protocol: The specific assay conditions were as follows. Buffer: pH=7.5, 100 mM Tris-HCl, 75 mM NaCl, 2.5 mM CaCl2, 10 mM cysteine, 1% DMSO after all additions. Protein: 0.1 nM Kgp, isolated from culture of Porphyromonas gingivalis, as described by Pike et al. (J. Biol. Chem. 1994, 269(1), 406), and Potempa and Nguyen (Current Protocols in Protein Science. 2007, 21.20.1-21.20.27). Fluorogenic substrate: 10 μM Z-His-Glu-Lys-MCA. Time=90 minutes. Temperature=37° C.
Further assays to measure the inhibitory activity of compounds of the present invention against Kgp and cathepsins B, H, K, L, and S were conducted as described in Example 66. The capacities of the compounds to inhibit the activity of cathepsins F, V, and Z were also measured.

Row | SMILES | IC50 (lysine gingipain (Kgp); Table 4) [nM] | further results
1 | COC(C)(C)C(=O)N[C@@H](CCCCN)C(=O)COC(C(F)(F)F)C(F)(F)F [Compound 69, (S)—N-(7-amino-1-((1,1,1,3,3,3-hexafluoropropan-2-yl)oxy)-2-oxoheptan-3-yl)-2-methoxy-2-methylpropanamide] | – | concentrations in the brain and cerebrospinal fluid (CSF) [1]: increased; oral availability [1]: improved; plasma concentrations [1]: increased; selectivity for Kgp over endogenous cathepsins (lysine gingipain (Kgp)): far more selective
2 | NCCCCC(NC(=O)c1ccccc1)C(=O)C(F)F (stereo not drawn) [Compound 37a] | > 100 | –
3 | NCCCCC(NC(=O)C1CCCC1)C(=O)COc1cccc(F)c1 (stereo not drawn) [Compound 7a] | 1.3 | IC50 (lysine gingipain (Kgp); Table 3): 1.3 nM
4 | CSCC(=O)C(CCCCN)NC(=O)C1CCCC1 (stereo not drawn) [Compound 16a] | – | IC50 (lysine gingipain (Kgp); Table 3): > 100 nM
5 | NCCCCC(NC(=O)c1ccccn1)C(=O)COc1c(F)ccc(F)c1F (stereo not drawn) [Compound 50a] | 0.09 | –
6 | NCCCC[C@H](NC(=O)c1ccc(F)nc1)C(=O)COc1ccon1 [Compound 55, (S)—N-(7-amino-1-(isoxazol-3-yloxy)-2-oxoheptan-3-yl)-6-fluoronicotinamide] | – | selectivity for Kgp over endogenous cathepsins (lysine gingipain (Kgp)): far more selective
7 | NCCCC[C@H](NC(=O)C1CCCC1)C(=O)COc1c(F)c(F)cc(F)c1F (stereo in doubt) [Compound 73, N-[7-amino-2-oxo-1-(2,3,5,6-tetrafluorophenoxy)heptan-3-yl]cyclopentanecarboxamide, reference compound] | < 0.05 | Kgp IC50 values (in words) (lysine gingipain (Kgp)): sub-nanomolar; IC50 (lysine gingipain (Kgp); Table 3): ≤ 0.05 nM; pIC50 (lysine gingipain (Kgp)): > 10.30
8 | CS(C)(=O)=CC(=O)C(CCCCN)NC(=O)C1CCCC1 (stereo not drawn) [Compound 58a] | 4.66 | –
9 | COC(C)(C)C(=O)NC(CCCCN)C(=O)COC(C(F)(F)F)C(F)(F)F (stereo not drawn) [Compound 69a] | 0.21 | –
10 | NCCCCC(NC(=O)c1ccc(F)cc1)C(=O)COc1c(F)cccc1F (stereo not drawn) [Compound 35a] | 0.1 | –
11 | NCCCCC(NC(=O)C1CCCC1)C(=O)COCC(F)(F)F (stereo not drawn) [Compound 17a] | – | IC50 (lysine gingipain (Kgp); Table 3): > 100 nM
12 | NCCCCC(NC(=O)c1cccc(OCCCF)c1)C(=O)COc1c(F)cccc1F (stereo not drawn) [Compound 30a] | 0.21 | –
13 | NCCCC[C@H](NC(=O)C1CCCC1)C(=O)COc1c(F)cccc1F [Compound 2, (S)—N-(7-amino-1-(2,6-difluorophenoxy)-2-oxoheptan-3-yl)cyclopentanecarboxamide] | – | selectivity for Kgp over endogenous cathepsins (lysine gingipain (Kgp)): increased selectivity
14 | COC(C)(C)C(=O)NC(CCCCN)C(=O)COc1cnc(C)nc1 (stereo not drawn) [Compound 65a] | 0.16 | –
15 | NCCCCC(NC(=O)C1CCCC1)C(=O)COc1ccon1 (stereo not drawn) [Compound 49a] | 0.23 | –
16 | NCCCCC(NC(=O)c1ccc(F)nc1)C(=O)COc1ccon1 (stereo not drawn) [Compound 55a] | 0.12 | –
17 | NCCCCC(NC(=O)C1CCCC1)C(=O)COC(C(F)(F)F)C(F)(F)F (stereo not drawn) [Compound 18a] | 0.5 | IC50 (lysine gingipain (Kgp); Table 3): 0.5 nM
18 | [N-]=[N+]=Nc1cccc(C(=O)NC(CCCCN)C(=O)COc2c(F)cccc2F)c1 (stereo not drawn) [Compound 12a] | – | IC50 (lysine gingipain (Kgp); Table 3): 0.08 nM
19 | NCCCCC(NC(=O)C1CCCC1)C(=O)Cn1cncc(F)c1=O (stereo not drawn) [Compound 41a] | > 100 | –
20 | NCCCCC(NC(=O)C1CCCC1)C(=O)Cn1ccc(=O)nc1 (stereo not drawn) [Compound 40a] | 30.3 | –
21 | NCCCCC(NC(=O)c1cccnc1Br)C(=O)COc1c(F)cccc1F (stereo not drawn) [Compound 34a] | 0.13 | –
22 | NCCCC[C@H](NC(=O)c1ccccn1)C(=O)COc1c(F)ccc(F)c1F [Compound 50, (S)—N-(7-amino-2-oxo-1-(2,3,6-trifluorophenoxy)heptan-3-yl)picolinamide] | – | selectivity for Kgp over endogenous cathepsins (lysine gingipain (Kgp)): increased selectivity
23 | NCCCCC(NC(=O)C1CCCC1)C(=O)COc1ccccc1F (stereo not drawn) [Compound 3a] | – | IC50 (lysine gingipain (Kgp); Table 3): 0.64 nM
24 | [N-]=[N+]=Nc1cccc(C(=O)NC(CCCCN)C(=O)COc2c(F)cccc2F)c1 (stereo not drawn) [Compound 33a] | 0.08 | –
25 | NCCCCC(NC(=O)C1CCCC1)C(=O)COc1c(F)cccc1F (stereo not drawn) [Compound 2a] | < 0.05 | IC50 (lysine gingipain (Kgp); Table 3): ≤ 0.05 nM and 0.11 nM
26 | COC(C)(C)C(=O)NC(CCCCN)C(=O)COc1c(F)ccc(F)c1F (stereo not drawn) [Compound 47a] | 0.06 | –
27 | NCCCC[C@H](NC(=O)C1CCCC1)C(=O)COc1ccon1 [Compound 49, (S)—N-(7-amino-1-(isoxazol-3-yloxy)-2-oxoheptan-3-yl)cyclopentanecarboxamide] | – | concentrations in the brain and cerebrospinal fluid (CSF) [1]: reduced
28 | COC(C)(C)C(=O)N[C@@H](CCCCN)C(=O)COc1c(F)cccc1F [Compound 48, (S)—N-(7-amino-1-(2,6-difluorophenoxy)-2-oxoheptan-3-yl)-2-methoxy-2-methylpropanamide] | – | oral availability [1]: improved; plasma concentrations [1]: increased

Row | SMILES | IC50 (lysine gingipain (Kgp); Table 4) [nM] | further results
29 | NCCCCC(NC(=O)c1cccnc1F)C(=O)COc1c(F)cccc1F (stereo not drawn) [Compound 32a] | 0.08 | –
30 | NCCCC[C@H](NC(=O)C1CCCC1)C(=O)COC(C(F)(F)F)C(F)(F)F [Compound 18, (S)—N-(7-amino-1-((1,1,1,3,3,3-hexafluoropropan-2-yl)oxy)-2-oxoheptan-3-yl)cyclopentanecarboxamide] | – | selectivity for Kgp over endogenous cathepsins (lysine gingipain (Kgp)): far more selective
31 | NCCCCC(NC(=O)C1CCCC1)C(=O)COc1cc(F)cc(F)c1F (stereo not drawn) [Compound 4a] | – | IC50 (lysine gingipain (Kgp); Table 3): 0.07 nM
32 | CS(=O)(=O)CC(=O)C(CCCCN)NC(=O)C1CCCC1 (stereo not drawn) [Compound 20a] | – | IC50 (lysine gingipain (Kgp); Table 3): > 100 nM
33 | NCCCCC(NC(=O)c1cccc(F)n1)C(=O)COc1c(F)cccc1F (stereo not drawn) [Compound 28a] | 0.34 | –
34 | COC(C)(C)C(=O)NC(CCCCN)C(=O)COc1cccnc1 (stereo not drawn) [Compound 64a] | 0.4 | –
35 | CN(C)CC(=O)C(CCCCN)NC(=O)C1CCCC1 (stereo not drawn) [Compound 19a] | – | IC50 (lysine gingipain (Kgp); Table 3): > 100 nM
36 | NCCCCC(NC(=O)c1cccc(OCCF)c1)C(=O)COc1c(F)cccc1F (stereo not drawn) [Compound 27a] | 0.27 | –
37 | NCCCCC(NC(=O)c1ccnc(F)c1)C(=O)COc1c(F)cccc1F (stereo not drawn) [Compound 31a] | 0.15 | –
38 | NCCCCC(NC(=O)c1cccc(F)c1)C(=O)COc1c(F)cccc1F (stereo not drawn) [Compound 26a] | 0.09 | –
39 | NCCCCC(NC(=O)c1ccncc1)C(=O)COc1c(F)ccc(F)c1F (stereo not drawn) [Compound 52a] | 0.06 | –
40 | NCCCC[C@@H](NC(=O)C1CCCC1)C(=O)COc1c(F)c(F)cc(F)c1F [Compound 74, reference compound] | – | IC50 (lysine gingipain (Kgp); Table 3): ≤ 0.05 nM
41 | NCCCCC(NC(=O)C1CCCC1)C(=O)COc1cc(F)ccc1F (stereo not drawn) [Compound 6a] | – | IC50 (lysine gingipain (Kgp); Table 3): 0.19 nM
42 | CN(C)c1ccc(C(=O)NC(CCCCN)C(=O)COc2ccon2)cn1 (stereo not drawn) [Compound 62a] | 0.14 | –
43 | NCCCCC(NC(=O)c1cccnc1)C(=O)COc1c(F)ccc(F)c1F (stereo not drawn) [Compound 42a] | 0.06 | –
44 | NCCCCC(NC(=O)c1cccnc1)C(=O)COc1c(F)cccc1F (stereo not drawn) [Compound 43a] | 0.09 | –
45 | NCCCCC(NC(=O)c1ccc(F)nc1)C(=O)COc1c(F)cccc1F (stereo not drawn) [Compound 29a] | 0.31 | –
46 | COC(C)(C)C(=O)NC(CCCCN)C(=O)COc1cc(C)nc(C)c1 (stereo not drawn) [Compound 63a] | 0.09 | –
47 | NCCCC[C@H](NC(=O)C1CCCC1)C(=O)COc1cccc(F)c1 [Compound 7, (S)—N-(7-amino-1-(3-fluorophenoxy)-2-oxoheptan-3-yl)cyclopentanecarboxamide] | – | selectivity for Kgp over endogenous cathepsins (lysine gingipain (Kgp)): increased selectivity
48 | NCCCCC(NC(=O)C1CCCC1)C(=O)Cn1cnccc1=O (stereo not drawn) [Compound 39a] | > 100 | –
49 | C[N+](C)(C)c1ccc(C(=O)NC(CCCCN)C(=O)COc2ccon2)cn1 (stereo not drawn) [Compound 61a] | 0.43 | –
50 | NCCCCC(NC(=O)c1cccnc1F)C(=O)COc1ccon1 (stereo not drawn) [Compound 56a] | 0.1 | –
51 | CN(C)c1ccc(/N=N/c2ccc(C(=O)NCc3cc(F)c(OCC(=O)C(CCCCN)NC(=O)c4cccc(N=[N+]=[N-])c4)c(F)c3)cc2)cc1 (stereo not drawn) [Compound 44a] | 3.04 | pIC50 (lysine gingipain (Kgp)): 8.52
52 | NCCCCC(NC(=O)C1CCCC1)C(=O)COc1cccc(F)c1F (stereo not drawn) [Compound 5a] | – | IC50 (lysine gingipain (Kgp); Table 3): 0.15 nM
53 | COC(C)(C)C(=O)NC(CCCCN)C(=O)COc1c(F)cccc1F (stereo not drawn) [Compound 48a] | 0.07 | –
54 | NCCCCC(NC(=O)C1CCCC1)C(=O)COc1cc(F)cc(F)c1 (stereo not drawn) [Compound 8a] | – | IC50 (lysine gingipain (Kgp); Table 3): 0.34 nM
55 | COC(C)(C)C(=O)NC(CCCCN)C(=O)COc1ccon1 (stereo not drawn) [Compound 57a] | 0.09 | –
